“Also recorded” adds a separate entry of the source.
Assays:
HBV DNA = test: Mismatch sensitive T7 endonuclease 1 (T7E1) assay in HepDE19 cells; type: cell-based, Hepatitis B virus (HBV); details: HepDE19 cells transfected for 3 days, T7E1 digestion of PCR products
From the text: DNA cleavage by CRISPR/Cas9 results in double-strand breaks (DSBs), which are repaired primarily by the non-homologous end-joining (NHEJ) pathway, resulting in indel mutations and transcriptionally active episomal variants. Thus, detecting DNA cleavage and indel mutations following CRISPR/Cas9-mediated DNA damage and repair is important for confirming its gene-editing effects. To validate the capability of the synthetic gRNA/Cas9 RNPs to introduce indel mutation and cleavage in HBV DNA in HepDE19 cells, a mismatch sensitive T7 endonuclease (T7E1) assay-was performed, following transfection of HepDE19 cells with gRNA5, gRNA9, gRNA5+gRNA9, or gRNAc RNPs. This assay allows for the detection of specific cleavage sites or indel mutations in the target gene (HBV DNA) in the treated cells. The indel mutagenesis was determined based on the DNA fragments detected after the gRNA/Cas9-mediated cleavage of the HBV DNA following T7E1 digestion of the specific PCR products.
The HBV DNA sequences surrounding gRNA-binding sites were amplified by PCR. […]
DNA cleavage by CRISPR/Cas9 results in double-strand breaks (DSBs), which are primarily repaired by the non-homologous end joining (NHEJ) repair pathway, resulting in gene mutations. […] The mutagenesis was determined based on the DNA fragments detected after the gRNA/Cas9-mediated cleavage of the HBV DNA following T7E1 digestion.

HepDE19 cells = test: Cytotoxicity, cell viability by MTT assay; type: cell-based, human; details: for cell viability in the presence of TNFα: Tet-free medium, TNFα (10 ng/ml); for cell viability (MTT): with or without Tet-free medium, 24 h, vs non-transfected (NT) control
Procedure: The MTT assay was used to determine metabolic activity and cell viability as an indicator of cellular cytotoxicity. Twenty-four hours after gRNA/Cas9 transfection, the cells were cultured in a Tet-free medium for an additional 24 h. For measuring cell proliferation, the cells were cultured in the Tet-free medium for an additional 3 days in a 96-well plate. The culture medium (100 μl) was changed and MTT reagent (0.5 mg/ml) was added at 37° C. for 4 h, followed by measuring the absorbance at 550-690 nm using a spectrophotometer (BioTek SYNERGY H1).
NAD (P) H-dependent cellular oxidoreductase enzymes reduce the tetrazolium MTT (3-(4,5-Dimethylthiazol 2-yl)-2,5-diphenyltetrazolium bromide) salt into insoluble formazan, which indicates the overall survival and metabolic activity of a living cell. To determine whether gRNA5/Cas9 or gRNA9/Cas9 exert any cytotoxic effects on HepDE19 cells, cell viability after transfection with gRNA5 or gRNA9 in the presence or absence of Tet-free medium (for HBV induction) for 24 h was measured using the MTT assay. […] Since HBV itself is not a direct cytopathic pathogen but can induce cell injury via immune-mediated mechanisms, the viability of transfected and non-transfected HepDE19 cells cultured in a Tet-free medium in the presence of TNFα, which can induce apoptotic cell death, was observed. […] Moreover, flow cytometry analysis was performed to detect the cell surface apoptotic marker annexin V and the loss of the plasma membrane integrity (measured by up taking 7-ADD). Cell apoptosis was then evaluated by measuring the Av and 7ADD levels in gRNA-transfected HepDE19 cells with or without Tet-free medium. No significant differences in cell apoptosis among the different treatments were observed (FIG. 16C). Finally, the proliferative ability of HepDE19 cells with or without gRNA transfection for 3 days was assessed, using the MTT assay. No significant differences in cell proliferation were found (FIG. 16D).

| Sequence | cleaved products / DSBs in HBV DNA after T7E1 treatment (HBV DNA) | cytotoxicity to hepatocytes (overall conclusion) (HepDE19 cells) | cell viability in the presence of TNFα (HepDE19 cells) | cell viability (MTT) (HepDE19 cells) | cell viability (MTT) (HepDE19 cells; listed as gRNA9/Cas9) | cell viability (MTT) (HepDE19 cells; listed as gRNA5/Cas9) |
| --- | --- | --- | --- | --- | --- | --- |
| GGTCTCCATGCGACGTGCAGNGG [gRNA9] | cleaved products were observed; also recorded: DSBs were introduced | not cytotoxic | No cytotoxic effects | no significant differences in the viability | no differences in the viability | – |
| GTTATCGCTGGATGTGTCTGNGG (guide GUUAUCGCUGGAUGUGUCUGNGG; complexed with Cas9 protein, chemistry not fully specified) [gRNA5, tested as synthetic gRNA/Cas9 RNP] | cleaved products were observed; also recorded: DSBs were introduced | not cytotoxic | No cytotoxic effects | no significant differences in the viability | – | no differences in the viability |

— patent US20260191793A1, “HBV SPECIFIC EXOSOMES AND USES THEREOF” (priority 2022, published 2026)
